# Experimental data reported in patent publication US12600725B2 (Memorial Sloan-Kettering Cancer Center, priority 2013, dated 2026).
# Read-outs that look alike come from different tables or passages of the source.
# Legend:
# Hsp90α [1] = biological target: T1, Hsp90α (Homo sapiens, UniProt P07900); settings: Richter et al. 2008; read-out: reported binding to Hsp90α; cited from earlier work
# Hsp90α [2] = biological target: T1, Hsp90α
# Hsp90β [3] = biological target: T2, Hsp90β (Homo sapiens, UniProt P08238); settings: Richter et al. 2008; read-out: reported binding to Hsp90β; cited from earlier work
# T2 sequence (P08238 whole entry): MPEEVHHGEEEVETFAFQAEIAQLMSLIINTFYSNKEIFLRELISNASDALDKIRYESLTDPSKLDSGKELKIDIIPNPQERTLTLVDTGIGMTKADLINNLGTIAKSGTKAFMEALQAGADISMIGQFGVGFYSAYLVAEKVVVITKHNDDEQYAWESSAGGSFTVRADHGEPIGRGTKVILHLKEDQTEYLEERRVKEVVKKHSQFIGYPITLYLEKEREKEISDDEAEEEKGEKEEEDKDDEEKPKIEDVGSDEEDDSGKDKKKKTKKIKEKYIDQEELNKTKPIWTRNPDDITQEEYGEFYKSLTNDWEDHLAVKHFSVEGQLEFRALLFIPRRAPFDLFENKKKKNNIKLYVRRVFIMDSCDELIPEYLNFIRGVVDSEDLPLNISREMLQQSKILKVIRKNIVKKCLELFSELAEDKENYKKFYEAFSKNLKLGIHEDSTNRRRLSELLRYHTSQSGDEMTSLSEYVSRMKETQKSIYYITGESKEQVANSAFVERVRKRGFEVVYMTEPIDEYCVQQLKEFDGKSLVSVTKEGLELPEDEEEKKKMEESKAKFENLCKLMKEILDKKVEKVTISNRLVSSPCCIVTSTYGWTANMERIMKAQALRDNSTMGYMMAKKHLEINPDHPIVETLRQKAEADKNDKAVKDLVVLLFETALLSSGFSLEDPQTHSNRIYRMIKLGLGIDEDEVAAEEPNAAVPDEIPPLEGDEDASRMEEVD
# Trap-1 [4] = biological target: T3, Trap-1 (Homo sapiens, UniProt Q12931); settings: read-out: Trap-1 IC50; 43a as FP probe
# T3 sequence (Q12931 60-704): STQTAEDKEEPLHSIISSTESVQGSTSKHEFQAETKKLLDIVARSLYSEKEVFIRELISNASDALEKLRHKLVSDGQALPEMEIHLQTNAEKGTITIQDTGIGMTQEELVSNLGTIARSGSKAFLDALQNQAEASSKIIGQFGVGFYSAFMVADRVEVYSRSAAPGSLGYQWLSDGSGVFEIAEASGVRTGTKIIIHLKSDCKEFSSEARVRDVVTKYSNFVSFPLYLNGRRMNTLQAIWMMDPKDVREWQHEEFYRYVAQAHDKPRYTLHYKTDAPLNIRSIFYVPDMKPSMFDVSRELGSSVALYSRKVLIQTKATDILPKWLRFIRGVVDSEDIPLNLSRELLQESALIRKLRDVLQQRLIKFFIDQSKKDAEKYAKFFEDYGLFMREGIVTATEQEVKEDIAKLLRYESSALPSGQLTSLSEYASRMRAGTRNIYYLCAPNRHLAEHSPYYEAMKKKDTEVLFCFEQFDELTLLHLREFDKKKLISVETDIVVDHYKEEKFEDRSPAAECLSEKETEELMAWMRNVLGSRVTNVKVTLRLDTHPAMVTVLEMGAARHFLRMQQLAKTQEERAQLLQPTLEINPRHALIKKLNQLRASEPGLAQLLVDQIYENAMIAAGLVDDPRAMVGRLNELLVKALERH
# Grp94 [5] = biological target: T4, Grp94 (Canis lupus familiaris, UniProt P41148)
# T4 sequence (P41148 with tags, fused parts or gaps DELINS287-327GGGG): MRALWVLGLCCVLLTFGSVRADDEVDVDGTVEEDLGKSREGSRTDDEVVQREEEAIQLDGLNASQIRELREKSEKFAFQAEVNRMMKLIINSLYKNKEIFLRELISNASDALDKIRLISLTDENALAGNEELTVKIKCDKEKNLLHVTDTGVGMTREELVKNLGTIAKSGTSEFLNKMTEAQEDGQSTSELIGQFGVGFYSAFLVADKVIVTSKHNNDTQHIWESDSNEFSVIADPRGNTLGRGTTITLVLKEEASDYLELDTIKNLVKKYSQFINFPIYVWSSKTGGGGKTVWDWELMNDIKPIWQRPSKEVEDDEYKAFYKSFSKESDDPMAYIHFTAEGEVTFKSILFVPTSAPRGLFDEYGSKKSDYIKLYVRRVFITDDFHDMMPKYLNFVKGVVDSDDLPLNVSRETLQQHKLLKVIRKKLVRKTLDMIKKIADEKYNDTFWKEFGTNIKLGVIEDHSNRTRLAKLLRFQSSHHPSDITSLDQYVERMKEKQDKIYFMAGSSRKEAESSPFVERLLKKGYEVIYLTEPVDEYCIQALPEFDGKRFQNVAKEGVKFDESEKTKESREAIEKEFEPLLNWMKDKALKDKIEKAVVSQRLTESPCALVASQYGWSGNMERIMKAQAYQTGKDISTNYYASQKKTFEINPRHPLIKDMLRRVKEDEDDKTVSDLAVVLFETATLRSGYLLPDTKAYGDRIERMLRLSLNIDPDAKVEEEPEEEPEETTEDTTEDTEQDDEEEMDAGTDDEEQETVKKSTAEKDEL
# Hsp90 = Hsp90 (Homo sapiens, UniProt P08238); settings: McLaughlin et al. 2004; read-out: reported interaction with Hsp90; cited from earlier work
# Chain of Hsp90 (P08238 whole entry): as the sequence (P08238 whole entry) above
# Hsp90β [6] = biological target: T2, Hsp90β
# Trap-1 [7] = biological target: T3, Trap-1; parameters: purchased Enzo Life Sciences ADI-SPP-848; settings: cited from earlier work
# Trap-1 [8] = biological target: T3, Trap-1; assay: Hsp90 FP saturation binding assay of FP probes; parameters: purchased Enzo Life Sciences ADI-SPP-848; settings: saturation binding of FP probe; read-out: apparent Kd
# Method: (§1) We next determined, in a standard saturation binding experiment that measures ligand binding in the presence of varying concentration of protein, the ability of these ligands as probes for the Hsp90 paralogs (FIGS. 22b-c).
# (§2) Hsp90 saturation binding assay. […] The assay window was calculated as the difference between the FP value recorded for the bound fluorescent tracer and the FP value recorded for the free fluorescent tracer (defined as mP-mPf).
# Hsp90β [9] = biological target: T2, Hsp90β; assay: Hsp90 FP saturation binding assay of FP probes; settings: saturation binding of FP probe; read-out: apparent Kd
# Method: as §1, §2
# Hsp90α [10] = biological target: T1, Hsp90α; assay: Hsp90 FP saturation binding assay of FP probes; settings: saturation binding of FP probe; read-out: apparent Kd
# Method: as §1, §2
# Grp94 [11] = biological target: T4, Grp94; assay: Hsp90 FP saturation binding assay of FP probes; parameters: other: 43a as FP probe; Grp94; apparent Kd; assay window; other: probe 115a; settings: saturation binding of FP probe
# Method: as §1, §2
# [12] = read-out: Hsp90α IC50, 43a as FP probe
# [13] = read-out: binding affinity (FP competition), probe 115a
# [14] = read-out: Grp94 IC50, 43a as FP probe
# [15] = read-out: Hsp90β IC50, 43a as FP probe
SMILES,Kd (Hsp90α [1]) [µM],IC50 (Hsp90α [2]; [12]) [µM],IC50 (Hsp90α [2]; [13]) [µM],Kd (Hsp90β [3]) [µM],IC50 (Trap-1 [4]) [µM],IC50 (Grp94 [5]; [14]) [µM],IC50 (Grp94 [5]; [13]) [µM],Kd (Hsp90) [µM],IC50 (Hsp90β [6]; [15]) [µM],IC50 (Hsp90β [6]; [13]) [µM],reported greater affinity of Trap-1 than Hsp90 (Trap-1 [7]),Kd (Trap-1 [8]) [µM],Kd (Hsp90β [9]) [µM],Kd (Hsp90α [10]) [µM],assay window (Grp94 [11]),Kd (Grp94 [11]; read-out: apparent Kd) [µM]
Nc1ncnc2c1ncn2[C@@H]1O[C@H](COP(=O)(O)OP(=O)(O)O)[C@@H](O)[C@H]1O [ADP],51,59.3,59,34,55.6,11.4,11.4,41,42.2,42,–,–,–,–,–,–
Nc1ncnc2c1ncn2[C@@H]1O[C@H](COP(=O)(O)OP(=O)(O)OP(=O)(O)O)[C@@H](O)[C@H]1O [ATP],–,861,–,–,31.3,3.24,3.2,840,894,–,approximately 10 fold,–,–,–,–,–
C[C@@H](NCCCn1c(Sc2cc(Cl)cc(Cl)c2)nc2c(N)ncnc21)C1CC1 [Compound 40],–,–,–,–,–,–,–,–,–,–,–,0.0058,0.0028,0.0039,less than 100 mP,0.0307
